{"source": "patent US12571801B2", "about": "“Tandem activity-based sensing and labeling strategy for reactive oxygen species imaging” (The Regents of the University of California, priority 2021, dated 2026)", "key": {"RAW 264.7 macrophages": {"system": "RAW 264.7 macrophages", "test": "Imaging and flow cytometry of endogenous H2O2 in PMA-stimulated RAW264.7 macrophages", "type": "cell-based, mouse", "conditions": "for probe fluorescence in PMA-treated RAW 264.7 cells vs control: probe 10 μM, PMA 1 μg/mL 60 min, confocal microscopy and flow cytometry", "protocol": "(A) Confocal microscopy (top row) and overlaid brightfield (bottom row) images of RAW264.7 macrophages stained with PG1-FM (10 μM) and then treated with PMA (1 μg/mL) or vehicle control for 60 min, washed and imaged, or first pre-treated with NADPH oxidase inhibitor DPI (5 μM) or antioxidant ebselen (5 μM) for 30 min in HBSS solution before PG1-FM staining and PMA stimulation. (B) Flow cytometry histograms and (C) quantification of mean value fluorescence intensity using PG1-FM under same conditions as (A). (D) Confocal microscopic images of RAW264.7 macrophages stained with PR1-FM (10 μM) under same conditions as (A). **P<0.01.\nWe next tested the ability of PG1-FM and PR1-FM to monitor H2O2 production in RAW 264.7 macrophages.\nRAW264.7 cells were plated on a μ-slide 8 well (ibidi) and cultured at 37° C. overnight in a 5% CO2 incubator. The cells were pretreated with inhibitors, DPI (5 μM) or Ebselen (10 μM), for 30 min in HBSS. Afterward, the cells were co-incubated with PG1-FM (10 μM) and PMA (1 μg/mL) with or without DPI or Ebselen. The cells were observed on confocal microscope after washing with HBSS twice.\nRAW264.7 cells were plated on a 6 well plate and cultured at 37° C. overnight in a 5% CO2 incubator. The cells were pretreated with inhibitors, DPI (5 μM) or Ebselen (10 μM), for 30 min in HBSS. Afterward, the cells were co-incubated with PG1-FM (5 μM) and PMA (1 μg/mL) with or without DPI or Ebselen. The cells were harvested by 0.05% Trypsin with EDTA, filtered, and analyzed with flow cytometer."}, "zebrafish": {"system": "zebrafish", "test": "In vivo live imaging of endogenous H2O2 in zebrafish, tail fin cut model", "experimental": "FIG. 6. Confocal microscopic images of zebrafish labeled with PR1-FM. Zebrafish embryos in E3 medium containing P1-FM (5 μM) were incubated overnight. The fishes were additionally incubated for 1 hour with containing DPI (100 nM) before the tail fin cut.\nWe sought to apply PR1-FM for in vivo live imaging to detect endogenous hydrogen peroxide production. PR1-FM was tested with live zebrafish in the regenerated fin model. The larvae at two days post-fertilization (dpf) was pre-stained with PR1-FM (5 μM) overnight before tail fin cut. […] Taken together, PR1-FM can be useful for detecting hydrogen peroxide in live zebrafish."}, "A431 cells": {"system": "A431 cells", "test": "Imaging of endogenous H2O2 in EGF-stimulated A431 cells", "type": "cell-based", "experimental": "(A) Confocal microscopy (top row) and overlaid brightfield (bottom row) images of A431 cells stained with PG1-FM (10 μM) and then treated with EGF (1 μg/mL) or vehicle control for 30 min, washed and imaged, or first pre-treated with NADPH oxidase inhibitor DPI (5 μM) or antioxidant ebselen (5 μM) for 30 min in HBSS solution before PG1-FM staining and EGF stimulation. (B) Quantification of experiments."}, "[1]": {"test": "ROS selectivity analysis (fluorescence response to competing ROS/RNS)", "conditions": "1 μM probe; OCl−, TBHP, O2−, ONOO−, NO; PBS", "experimental": "(§1) FIGS. 1A-I. Fluorescence responses and activity-based sensing and labeling properties of PG1-FM, MitoPY1-FM, and PR1-FM. (A, B, C) Activity-based sensing fluorescence responses of 1 μM PG1-FM (A), 1 μM MitoPY1-FM (B), and 1 μM PR1-FM (C) to 25 μM H2O2. Data were acquired in PBS (pH 7.4) at 37° C. (D, E, F) Fluorescence responses of 1 μM PG1-FM (D), 1 μM MitoPY1-FM (E), and 1 μM PR1-FM (F) towards biologically relevant competing reactive oxygen species and reactive nitrogen species. (G, H, I) H2O2-dependent activity-based labeling of PG1-FM (G), MitoPY1-FM (H), and PR1-FM (I) to BSA. A solution of BSA (0.5 mg/mL) and PG1-FM (1 μM), MitoPY1-FM (1 μM), and PR1-FM (1 μM) in PBS (pH 7.4) was incubated with or without H2O2(100 μM) and analyzed by SDS-PAGE gel.\nFIG. 8. Fluorescence spectra of PG1-FM reacted with […] of OCl^−, TBHP, O2^−, ONOO^−, NO or PBS (control). PG1-FM (1 μM) was incubated with […] of H2O2, OCl^−, TBHP, O2^−, ONOO^−, or NO at 37° C. in PBS (−). The mixtures were measured by fluorometer at any incubating times (0, 5, 15, 30, 45, and 60 min).\n(§2) PG1-FM was dissolved in DMSO to obtain a 1 mM stock solution. The fluorescence spectra of PG1-FM (1 μM) were measured in PBS (−) containing 25 μM of H2O2, OCl^−, TBHP, O2^−, ONOO^−, or NO OCl^−, O2^−, ONOO^−, or NO were generated by using NaOCl (Fluka), potassium superoxide (SIGMA), Peroxynitrite (Cayman), and PROLI NONOate (Cayman), respectively. The fluorescence spectra of PG1-FM were collected an emission window between 500 nm to 650 nm with excitation at 488 nm."}, "[2]": {"test": "Fluorescence response of probes to H2O2 in buffer", "conditions": "1 μM probe, 25 μM H2O2, PBS (pH 7.4), 37° C.", "experimental": "as §1\n(§3) We first evaluated the in vitro response of PG1-FM, MitoPY1-FM, and PR1-FM to hydrogen peroxide in aqueous solution buffered to physiological pH. […] PG1-FM converted to a fluorescent product that undergoes subsequent hydrolysis with H2O by LC analysis (FIG. 9A-B). […] To establish activity-based labeling of PG1-FM, MitoPY1-FM, and PR1-FM in a H2O2-dependent manner, we incubated the probes with bovine serum albumin (BSA) as a model protein substrate in the presence or absence of H2O2, and the reactions were analyzed by SDS-PAGE.\nas §2"}, "HeLa cells [3]": {"system": "HeLa cells", "test": "Confocal imaging of exogenous H2O2 in live HeLa cells", "type": "cell-based", "conditions": "5 μM probe; for probe fluorescence in HeLa cells on exogenous H2O2 treatment: H2O2 (1 mM) 60 min vs vehicle, confocal", "experimental": "FIGS. 2A-C. Exogenous H2O2 detection. Confocal microscopic images of HeLa cell stained with PG1-FM, PR1-FM, and MitoPY1-FM. (A, B) HeLa cells were pe-stained with PG1-FM (5 μM) or PR1-FM (5 μM) at 37° C. in a 5% CO2 incubator. After incubating for 30 min, the cells were washed with HBSS twice, and treated with H2O2 (1 mM) for 60 min. The cells were observed on confocal microscope after washing with HBSS twice. (C) HeLa cells were pe-stained with MitoPY1-FM (5 μM) at 37° C. in a 5% CO2 incubator. After incubating for 30 min, the cells were washed with HBSS twice, and treated with H2O2 (1 mM) for 60 min. The cells were observed on confocal microscope after staining with MitoBright LT Green for 30 mi. Scale bar: 50 μm.\nWe next assessed the ability of PG1-FM, MitoPY1-FM, and PR1-FM for visualizing changes in H2O2 levels in live cells with exogenous H2O2 treatment. HeLa cells were pre-stained with 5 μM of PG1-FM, MitoPY1-FM, or PR1-FM, treated with H2O2 (1 mM) or vehicle control, washed, and imaged. MitoPY1-FM stained HeLa cells were co-stained with MitoBright LT Green before imaging. […] We observed that the probes load evenly throughout the cell and responds to elevations in H2O2(FIGS. 2A, 2B, and 2C).\nCells were grown at the UC Berkeley Tissue Culture Facility. HeLa, RAW264.7, and A431 cells were cultured in DMEM (high glucose) supplemented with 10% (v/v) fetal bovine serum, GlutaMAX, and NEAA. All cells were maintained in a humidified 5% CO2 incubator at 37° C."}, "HeLa cells [4]": {"system": "HeLa cells", "test": "Imaging of mitochondrial H2O2 in HeLa cells treated with Antimycin or Rotenone", "type": "cell-based", "experimental": "FIGS. 7A-B. Confocal microscopic images of HeLa cell stained with MitoPY1-FM. (A) HeLa cell was stained with MitoPY1-FM (5 μM) for 1 h. After washing the cell with non-FBS medium, the cell was treated with Antimycin (1 μM) or Rotenone (1 μM) for 24 h. The cells were observed on confocal microscope after washing the cell. (B) Confocal microscopic images of fixed HeLa cell stained with MitoPY1-FM and Tom 20 antibody. HeLa cells were stained with MitoPY1-FM and then exposed with antimycin A. The treated cells were fixed and stained with Tom 20 antibody before the observation.\nWe evaluated MitoPY1-FM for imaging mitochondrial H2O2 fluxes produced by inhibition of mitochondrial electron transporter chain. HeLa cells were pre-stained with MitoPY1-FM (5 μM) and stimulated by Antimycin (1 μM) or Rotenone (1 μM) for 24 h to induce ROS and oxidative stress."}, "[5]": {"target": "bovine serum albumin (BSA) (Bos taurus, UniProt P02769)", "sequence (P02769 25-607)": "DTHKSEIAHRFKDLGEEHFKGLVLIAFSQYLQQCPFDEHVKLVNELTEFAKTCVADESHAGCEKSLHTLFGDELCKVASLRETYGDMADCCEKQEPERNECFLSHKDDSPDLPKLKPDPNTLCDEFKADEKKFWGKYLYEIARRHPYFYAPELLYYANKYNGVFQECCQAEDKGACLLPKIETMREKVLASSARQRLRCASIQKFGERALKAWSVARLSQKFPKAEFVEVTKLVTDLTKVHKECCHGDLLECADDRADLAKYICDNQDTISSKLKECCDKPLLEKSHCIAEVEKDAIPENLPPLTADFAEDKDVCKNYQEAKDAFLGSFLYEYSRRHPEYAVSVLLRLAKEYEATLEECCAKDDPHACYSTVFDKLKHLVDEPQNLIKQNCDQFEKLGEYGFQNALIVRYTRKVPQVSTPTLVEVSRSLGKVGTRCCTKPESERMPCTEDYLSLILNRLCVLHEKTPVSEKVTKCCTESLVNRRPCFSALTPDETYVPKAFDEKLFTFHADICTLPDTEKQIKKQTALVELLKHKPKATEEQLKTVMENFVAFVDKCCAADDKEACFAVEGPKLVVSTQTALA", "test": "H2O2-dependent activity-based labeling of BSA, SDS-PAGE", "type": "biochemical", "conditions": "BSA 0.5 mg/mL, with or without H2O2 (100 μM)", "experimental": "as §1, §3\nPG1-FM (10 μM) and BSA (0.5 mg/mL) were incubated at 25° C. for 1 h with or without H2O2 (100 μM). Afterward, Ebselen (100 μM) was added to the mixture to quench excess of H2O2. The obtained samples were separated with Novex™ Mini Gel (Thermo). The gel was first analyzed by ChemiDoc™ MP (Bio-Rad) to take a fluorescence images, and stained with Coomassie brilliant blue (CBB) Solution"}, "HeLa cells [6]": {"system": "HeLa cells", "test": "Imaging and flow cytometry of endogenous H2O2 in paraquat-treated HeLa cells", "type": "cell-based", "conditions": "paraquat 1 mg/mL 24 h; confocal microscopy, verified by flow cytometry", "experimental": "FIGS. 3A-C. PG1-FM imaging of endogenous H2O2 generation in live HeLa cells under oxidative stress conditions stimulated by paraquat. (A) Confocal microscopy images of HeLa cells treated with or without paraquat (1 mg/mL) for 24 h, stained with PG1-FM (10 μM) for 1 h, washed twice with HBSS, and imaged. Scale bar: 50 μm. (B) Flow cytometry analysis of the cells treated with or without paraquat using PG1-FM using same conditions as (A). (C) Flow cytometric data quantified with mean value. **P<0.01.\nWe next utilized PG1-FM for imaging endogenous H2O2 fluxes produced by multiple types of cell models under various stimulation conditions. Our first set of experiments along these lines evaluated the performance of the probe under conditions of oxidative stress induced by paraquat treatment. HeLa cells were stimulated with or without paraquat (1 mg/mL) for 24 h to induce ROS and oxidative stress, followed by staining with PG1-FM for 30 min, washing, and imaging. […] Because the probe is cell-trappable, we verified the observed fluorescence enhancements using flow cytometry (FIG. 3B, 3C), highlighting its utility in this analytical method as well."}}}
{"compound": "c1ccc2c(c1)[I+]c1ccccc1-2", "note": "[DPI, diphenyleneiodonium, reference compound]", "values": [{"measurement": "effect of inhibitor on PMA-induced probe fluorescence increase in RAW 264.7 cells", "setting": "RAW 264.7 macrophages; inhibitor pre-treatment 30 min in HBSS", "value": "fluorescence increases are blocked"}, {"measurement": "effect of inhibitor on PR1-FM fluorescence in zebrafish after tail fin cut", "setting": "zebrafish; DPI 100 nM, 1 hour before the tail fin cut", "value": "lower level of fluorescence"}, {"measurement": "effect of inhibitor on H2O2-induced PG1-FM fluorescence in EGF-stimulated A431 cells", "setting": "A431 cells; inhibitor 5 μM pre-treatment 30 min", "value": "inhibited H2O2-induced enhancements in PG1-FM fluorescence"}]}
{"compound": "CC1(C)OB(c2ccc3c(c2CF)Oc2cc(N4CCN(C(=O)CCC[P+](c5ccccc5)(c5ccccc5)c5ccccc5)CC4)ccc2C32OC(=O)c3ccccc32)OC1(C)C.[Br-]", "note": "(stereo not shown) [MitoPY1-FM, MitoPY1 Fluoromethyl]", "values": [{"measurement": "selectivity of fluorescence response for H2O2 over other ROS and RNS", "setting": "[1]", "value": "highly selective response for H2O2"}, {"measurement": "fluorescence response after treatment with H2O2", "setting": "[2]", "value": "clear fluorescence enhancement"}, {"measurement": "localisation by co-staining with MitoBright LT Green", "setting": "HeLa cells [3]; HeLa cells, H2O2 (1 mM)", "value": "overlapped with MitoBright LT"}, {"measurement": "probe fluorescence in mitochondria of HeLa cells exposed to electron transport chain inhibitors vs untreated", "setting": "HeLa cells [4]; MitoPY1-FM 5 μM, Antimycin (1 μM) or Rotenone (1 μM) 24 h", "value": "patent H2O2-dependent fluorescence increases"}, {"measurement": "localisation of probe fluorescence in fixed HeLa cells co-stained with Tom20 antibody", "setting": "HeLa cells [4]; antimycin A exposed, fixed cells", "value": "enhanced on mitochondria"}, {"measurement": "H2O2-dependent fluorescent labeling of BSA", "setting": "[5]", "value": "fluorescent BSA-associated band was observed only under conditions with H2O2"}]}
{"compound": "CN(C)c1ccc2c(c1)[Si](C)(C)c1c(ccc(B3OC(C)(C)C(C)(C)O3)c1CF)C21OC(=O)c2ccccc21", "note": "(stereo not shown) [PR1-FM, Peroxy Red-1 Fluoromethyl]", "values": [{"measurement": "probe fluorescence in PMA-treated RAW 264.7 cells vs control", "setting": "RAW 264.7 macrophages", "value": "higher PG1-FM and PR1-FM fluorescence relative to control cells"}, {"measurement": "selectivity of fluorescence response for H2O2 over other ROS and RNS", "setting": "[1]", "value": "highly selective response for H2O2"}, {"measurement": "fluorescence response after treatment with H2O2", "setting": "[2]", "value": "clear fluorescence enhancement"}, {"measurement": "probe fluorescence in HeLa cells on exogenous H2O2 treatment", "setting": "HeLa cells [3]", "value": "fluorescence increase in the whole cells"}, {"measurement": "probe fluorescence in zebrafish post-cut vs pre-cut of tail fin", "setting": "zebrafish; larvae 2 dpf, PR1-FM 5 μM overnight", "value": "patently higher fluorescence signals in post-cut condition"}, {"measurement": "H2O2-dependent fluorescent labeling of BSA", "setting": "[5]", "value": "fluorescent BSA-associated band was observed only under conditions with H2O2"}]}
{"compound": "COc1ccc2c(c1)Oc1c(ccc(B3OC(C)(C)C(C)(C)O3)c1CF)C21OC(=O)c2ccccc21", "note": "(stereo not shown) [PG1-FM, Peroxy Green-1 Fluoromethyl]", "values": [{"measurement": "probe fluorescence in PMA-treated RAW 264.7 cells vs control", "setting": "RAW 264.7 macrophages", "value": "higher PG1-FM and PR1-FM fluorescence relative to control cells"}, {"measurement": "selectivity of fluorescence response for H2O2 over other ROS and RNS", "setting": "[1]", "value": "highly selective response for H2O2"}, {"measurement": "fluorescence response after treatment with H2O2", "setting": "[2]", "value": "clear fluorescence enhancement"}, {"measurement": "probe fluorescence in HeLa cells on exogenous H2O2 treatment", "setting": "HeLa cells [3]", "value": "fluorescence increase in the whole cells"}, {"measurement": "H2O2-dependent fluorescent labeling of BSA", "setting": "[5]", "value": "fluorescent BSA-associated band was observed only under conditions with H2O2"}, {"measurement": "probe fluorescence in EGF-stimulated A431 cells vs control", "setting": "A431 cells; PG1-FM 10 μM, EGF 1 μg/mL 30 min, confocal", "value": "clear increase in fluorescence"}, {"measurement": "probe fluorescence in paraquat-exposed vs untreated HeLa cells", "setting": "HeLa cells [6]", "value": "patent H2O2-dependent fluorescence increases"}]}
